This is an account of results in article PMC4467156, “A new chemical inhibitor of angiogenesis and tumorigenesis that targets the VEGF signaling pathway upstream of Ras” (Oncotarget, 2015).

For experiment [1], the system named is HMEC-GFP cells. Put plainly: Scratch wound closure assay, HMEC-GFP. It is filed as cell-based, human. The conditions noted are these: for activity on HMEC-GFP wound closure: structure-activity relationship analysis; for pIC50: wound closure after 24 h, 10% FCS, tested 3.125 μM to 100 μM. The source says:
In order to adapt the endothelial scratch wounding assay to the constraints of high throughput screening, we decided to use an endothelial cell line rather than primary cultures for the sake of reproducibility. Since angiogenesis is triggered by capillary endothelial cells, we selected the HMEC-1 cell line which consists of human dermal microvascular endothelial cells stably expressing SV40 […] antigen. We infected this cell line with GFP-encoding retroviral particles and selected one clone (thereafter named HMEC-GFP) that presented a high level of fluorescence and a strong proliferation rate (doubling time in the presence of serum: 22 h). We controlled that GFP expression was stable over at least 50 passages and that these cells still expressed endothelial markers such as VE-cadherin and CD31. In a standard assay, HMEC-GFP cells were grown until confluence in 96-well plates in the presence of serum, scratched with the multi-tip dispenser of the HTS automat, gently rinsed twice to eliminate detached cells and cell debris that could liberate inflammatory and potentially angiogenic cytokines, and incubated for 24 h in the presence of serum and the compounds to be tested. Each well was photographed at time 0 h (after wounding) and 24 h under a motorized epifluorescence microscope and the digitized images were analyzed using Image J to determine the percentage of wound closure (Figure 1A, 1B). Under our standard conditions, the closure rate was 72 ± 4% in the positive controls and 27 ± 4.% in the negative controls.
(§1) Confluent cell monolayers were wounded with a plastic pipet tip, washed gently with phosphate buffer saline (PBS) and treated with complete media containing molecules, as indicated. Cells were placed at 37°C into the incubator and photographed at indicated times. Quantitation of closure of the monolayer was performed using the NIH Image J program (http://rsbweb.nih.gov/ij/). Results are expressed as percentage of wound closure at t = 24 h as compared to the initial wound at t = 0 h.

Experiment [2] has as its system 3T3-GFP cells. Put plainly: Scratch wound closure assay, 3T3-GFP. The class given is cell-based. The conditions noted are these: wound closure after 24 h, 10% FCS, tested 3.125 μM to 100 μM.
From the text: Using this assay, we screened the academic library of the University of Grenoble, which is composed of 1360 original molecules. Setting the threshold of significant responses at 75% of the maximal inhibition, we identified 80 inhibitory molecules. At this stage, we reasoned that molecules that would affect the cytoskeleton dynamics or the adhesion properties of any cell type would be positive in this assay but would not represent good candidates for further development. We thus decided to perform a secondary counterscreen of the first 80 selected compounds on GFP-expressing 3T3 fibroblasts (3T3-GFP) using the same scratch assay. We then focused our interest on the 5 molecules that inhibited more strongly HMEC-GFP than 3T3-GFP wound healing. […] We synthesized a series of 30 analogs and tested them at various concentrations both on HMEC-GFP and 3T3-GFP cells. […] Dansyl and naphthalimide aromatic groups, found in COB223 and COB227 respectively, appeared very efficient. The presence of the diaminomethyl group on dansyl is critical for the activity of COB223 as shown by the lower efficiency of COB235 (IC50 is 8 times higher than that of COB223). COB223 and COB227 contain a tert-butyloxycarbonyl function (BOC group) as a second hydrophobic group. Replacement of BOC by an amino group decreased the efficiency and the specificity (compare 05-102-L-B09 vs 05-06-L-D03, or COB227 vs COB228).
as §1

pIC50: −log10 of the molar value. Structures can show the parent of a compound that is named as a salt. Some results are limits rather than exact numbers.

For `NCCCN` [1,3-diaminopropane, reference compound], in experiment [1], the “activity on HMEC-GFP wound closure” value is “inactive” and the negative-log IC50 (pIC50) was less than 4.00.

On to `CC(C)(C)OC(=O)NCCCN1CCN(CCCNC(=O)c2ccccc2)CC1` [COB237, tert-Butyl 3-(4-(3-phenylamidopropyl)piperazin-1-yl)propylcarbamate], for which the pIC50 in experiment [1] (Homo sapiens) and in experiment [2] was less than 4.30 in each case.

As for `CN(C)c1cccc2c(S(=O)(=O)NCCCCCN)cccc12` [dansylcadaverine, monodansylcadaverine, reference compound], the pIC50 in experiment [1] (Homo sapiens) and in experiment [2] was less than 4.30 in each case. For the same molecule, the “activity on HMEC-GFP wound closure” value in experiment [1] is “inactive”.

In experiment [1] (Homo sapiens), `CC(C)(C)OC(=O)NCCCN1C(=O)c2cccc3cc([N+](=O)[O-])cc(c23)C1=O` [COB282, N-(3-(tert-Butoxycarbonylamino)propyl)-3-nitro-1,8-naphthalimide] gave a pIC50 of less than 4.00.

Molecule `NCCCN1C(=O)c2cccc3cc([N+](=O)[O-])cc(c23)C1=O` [COB277, N-(3-Aminopropyl)-3-nitro-1,8-naphtalimide hydrochloride] had a pIC50 in experiment [1] (Homo sapiens) of less than 4.00.

Turning to `NCCCNCCCCNCCCN` [spermine, reference compound], the “activity on HMEC-GFP wound closure” value in experiment [1] is “inactive”.

As for `CC(C)(C)OC(=O)NCCCN1CCN(CCCN2C(=O)c3cccc4cc([N+](=O)[O-])cc(c34)C2=O)CC1` [COB280, N-{3-[4-(3-tert-Butoxycarbonylaminopropyl)piperazin-1-yl]propyl}-3-nitro-1,8-naphthalimide], the values for the pIC50 in experiment [1] (Homo sapiens) and in experiment [2] were 4.60 and less than 4.00, respectively.

As to `CC(C)(C)OC(=O)NCCCN1CCN(CCCNC(=O)OCc2ccc([N+](=O)[O-])cc2)CC1` [COB238, 4-Nitrobenzyl N-[3-(4-{3-[(tert-butoxycarbonyl)amino]propyl}piperazin-1-yl)propyl] carbamate], the results for the pIC50 in experiment [1] (Homo sapiens) and in experiment [2] were 4.70 and less than 4.30, respectively.

Regarding `NCCCN1C(=O)c2cccc3cccc(c23)C1=O` [COB226, N-(3-Aminopropyl)-1,8-naphthalimide hydrochloride], the pIC50 in experiment [1] (Homo sapiens) and in experiment [2] was less than 4.30 in each case.

Turning to `CN(C)CCCNS(=O)(=O)c1cccc2c(N(C)C)cccc12` [COB221, 5-(Dimethylamino)-N-[3-(dimethylamino)propyl]naphthalene-1-sulfonamide], the negative-log IC50 (pIC50) in experiment [1] (Homo sapiens) is 4.70; in experiment [2], 3.82.

On to `CC(C)(C)OC(=O)NCCCNCCCN1C(=O)c2cccc3cc([N+](=O)[O-])cc(c23)C1=O` [COB281, N-[3-((3-tert-Butoxycarbonylaminopropyl)amino)propyl]-3-nitro-1,8-naphthalimide], for which the negative logarithm of the IC50 (pIC50) in experiment [1] (Homo sapiens) was 4.60; in experiment [2], less than 4.30.

Regarding `CN(C)c1ccc2c3c(cccc13)C(=O)N(CCCNC(=O)OC(C)(C)C)C2=O` [COB276, N-(3-(tert-Butoxycarbonylamino)propyl)-4-dimethylamino-1,8-naphthalimide], in experiment [1] (Homo sapiens), the negative logarithm of the IC50 (pIC50) is less than 4.00.

For the molecule `NCCN` [Ethylene diamine, 1,2-ethylenediamine, reference compound], in experiment [1], the “activity on HMEC-GFP wound closure” value is “inactive” and the pIC50 was less than 4.00.

For the molecule “1,4-bis[3-(5-(Dimethylamino)naphthalene-1-sulfonamido)propylamino]piperazine [COB222]”, the negative logarithm of the IC50 (pIC50) in experiment [1] and in experiment [2] was less than 4.30 each time.

Consider `NCCCCCCNS(=O)(=O)c1cccc2c(Cl)cccc12` [Compound W7, reference compound], for which the pIC50 in experiment [1] (Homo sapiens) and in experiment [2] was 4.46 each time.

`CN(C)c1ccc2c3c(cccc13)C(=O)N(CCCN1CCN(CCCNC(=O)OC(C)(C)C)CC1)C2=O` [COB274, N-{3-[4-(3-tert-Butoxycarbonylaminopropyl)piperazin-1-yl]propyl}-4-dimethylamino-1,8-naphthalimide] had a pIC50 in experiment [1] (Homo sapiens) of less than 4.00.

For “N-(5-(Dimethylamino)naphthalene-1-sulfonamido)-N'-(tert-butoxycarbonyl)-1,3-diamino-propane [Compound 05-102-B09]”, the results for the negative logarithm of the IC50 (pIC50) in experiment [1] and in experiment [2] were 4.74 and 3.82, respectively.

As to `Cc1ccc(S(=O)(=O)NCCCN2CCN(CCCNC(=O)OC(C)(C)C)CC2)cc1` [COB236, tert-Butyl 3-(4-(3-(4-methylphenylsulfonamido)propyl)piperazin-1-yl) propylcarbamate], the pIC50 in experiment [1] (Homo sapiens) and in experiment [2] was less than 4.30 throughout.

On to `NCCCN1CCN(CCCN2C(=O)c3cccc4cccc(c34)C2=O)CC1` [COB228, N-{3-[4-(3-Aminopropyl)piperazin-1-yl]propyl}-1,8-naphthalimide hydrochloride], for which the results for the pIC50 in experiment [1] (Homo sapiens) and in experiment [2] were 4.60 and 4.40, respectively.

`CN(C)c1cccc2c(S(=O)(=O)NCCOCCO)cccc12` [COB225, 2-{2-[5-(Dimethylamino)naphthalene-1-sulfonamido]ethoxy}ethan-1-ol]: the negative logarithm of the IC50 (pIC50) in experiment [1] (Homo sapiens) and in experiment [2] was less than 4.30 in each case.

For the molecule “N-(5-(Dimethylamino)naphthalene-1-sulfonamido)-1,3-diamino-propane [Compound 05-06-L-D03]”, the results for the negative-log IC50 (pIC50) in experiment [1] and in experiment [2] were 4.60 and 3.70, respectively.

For the molecule `O=C1c2cccc3cc([N+](=O)[O-])cc(c23)C(=O)N1CCCNCCCN1C(=O)c2cccc3cc([N+](=O)[O-])cc(c23)C1=O` [COB278, Bis-[(3-nitro-1,8-naphthalimido)propyl]amine], the negative logarithm of the IC50 (pIC50) in experiment [1] (Homo sapiens) was 4.90; in experiment [2], 4.60.

Regarding `CN(C)c1cccc2c(S(=O)(=O)NCCCO)cccc12` [COB220, 5-(Dimethylamino)-N-[3-hydroxypropyl]naphthalene-1-sulfonamide], the negative logarithm of the IC50 (pIC50) in experiment [1] (Homo sapiens) was 4.40; in experiment [2] it was less than 4.30.

Turning to `CN(C)c1ccc2c3c(cccc13)C(=O)N(CCCNCCCNC(=O)OC(C)(C)C)C2=O` [COB275, N-[3-((3-tert-Butoxycarbonylaminopropyl)amino)propyl]-4-dimethylamino-1,8-naphthalimide], the negative logarithm of the IC50 (pIC50) in experiment [1] (Homo sapiens) was 4.90; in experiment [2] it was 4.30.

Regarding `CC(C)(C)OC(=O)NCCCN1CCN(CCCNS(=O)(=O)c2cccc3ccccc23)CC1` [COB235, tert-Butyl 3-(4-(3-(naphthalene-1-sulfonamido)propyl)piperazin-1-yl) propylcarbamate], the results for the pIC50 in experiment [1] (Homo sapiens) and in experiment [2] were 4.40 and less than 4.30, respectively.

In experiment [1] (Homo sapiens), `CC(C)(C)OC(=O)NCCCN1C(=O)c2cccc3cccc(c23)C1=O` [COB283, N-(3-(tert-Butoxycarbonylamino)propyl)-1,8-naphthalimide] showed a pIC50 of less than 4.00.

On to `CN(C)c1cccc2c(S(=O)(=O)NCCOCCOCCNC(=O)OC(C)(C)C)cccc12` [COB296, tert-Butyl N-(2-[2-{2-(5-(dimethylamino)naphthalene-1-sulfonamido)ethoxy}ethoxy]ethyl) carbamate], for which the pIC50 in experiment [1] (Homo sapiens) is 5.30.

Regarding `CN(C)c1cccc2c(S(=O)(=O)N3CCN(CCOCCO)CC3)cccc12` [COB224, 2-(2-{4-[5-(Dimethylamino)naphthalene-1-sulfonyl]piperazin-1-yl}ethoxy)ethan-1-ol], the negative-log IC50 (pIC50) in experiment [1] (Homo sapiens) and in experiment [2] was less than 4.30 each time.

As to `NCCCCN` [putrescine, 1,4-diaminobutane, reference compound], the pIC50 in experiment [1] (Homo sapiens) is less than 4.00. The “activity on HMEC-GFP wound closure” value in experiment [1] is “inactive”.
